# Laboratory results from US9255100B2 (BAYER INTELLECTUAL PROPERTY GMBH, priority 2010, dated 2016).
# Biological target: T1, N-terminally GST-tagged human full length recombinant Mps-1 kinase (Homo sapiens, UniProt P33981)
# T1 construct: N-terminally GST-tagged human full length recombinant Mps-1 kinase; purchased Invitrogen, Karslruhe, Germany PV4071
# T1 sequence (P33981 1-857): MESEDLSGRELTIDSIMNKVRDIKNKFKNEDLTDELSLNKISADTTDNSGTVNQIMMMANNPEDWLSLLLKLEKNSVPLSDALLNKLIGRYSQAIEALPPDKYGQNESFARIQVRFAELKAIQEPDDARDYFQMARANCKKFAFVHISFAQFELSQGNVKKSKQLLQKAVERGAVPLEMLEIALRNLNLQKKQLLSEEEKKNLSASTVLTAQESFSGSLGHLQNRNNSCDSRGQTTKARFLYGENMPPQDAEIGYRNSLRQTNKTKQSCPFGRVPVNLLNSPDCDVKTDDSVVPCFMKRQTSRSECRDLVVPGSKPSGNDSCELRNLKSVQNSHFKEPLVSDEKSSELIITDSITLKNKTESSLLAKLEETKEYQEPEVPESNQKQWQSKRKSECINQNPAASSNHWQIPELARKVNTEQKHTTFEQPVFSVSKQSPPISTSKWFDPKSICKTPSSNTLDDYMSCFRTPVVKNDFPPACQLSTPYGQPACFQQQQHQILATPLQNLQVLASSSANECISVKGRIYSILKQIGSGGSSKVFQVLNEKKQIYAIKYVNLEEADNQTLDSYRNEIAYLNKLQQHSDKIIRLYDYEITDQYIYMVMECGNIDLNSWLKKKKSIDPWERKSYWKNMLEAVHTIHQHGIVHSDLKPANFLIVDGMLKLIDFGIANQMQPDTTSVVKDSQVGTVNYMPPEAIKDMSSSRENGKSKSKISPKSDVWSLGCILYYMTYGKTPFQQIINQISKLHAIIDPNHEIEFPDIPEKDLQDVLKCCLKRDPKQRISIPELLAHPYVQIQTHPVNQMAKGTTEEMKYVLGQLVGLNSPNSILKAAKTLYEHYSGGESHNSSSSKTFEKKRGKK
# Assay: Mps-1 kinase assay (TR-FRET)
# Assay type: biochemical
# Conditions: Mps1 IC50 [nM], 10 μM ATP, 1 μM peptide substrate, 60 min at 22° C.
# Method in brief: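 Compounds were tested against recombinant full-length Mps-1 bearing an N-terminal GST tag, about 1 nM final, with a biotinylated amide-capped peptide as substrate. Detection reagents were then bound for 1 h at 22° C and the product read by TR-FRET.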
row,IC50,SMILES
1,0.1 nM,"CNc1cc(Oc2ccc(OC)cc2F)nn2c(-c3ccc(C(=O)NC4CC4)c(C)c3)cnc12 [Example 534, N-cyclopropyl-4-[6-(2-fluoro-4-methoxy-phenoxy)-8-(methyl-amino)imidazo[1,2-b]pyridazin-3-yl]-2-methylbenzamide]"
2,0.1 nM,"Cc1cc(-c2cnc3c(NCCC(C)(C)O)cc(Oc4cccc(F)c4)nn23)ccc1C(=O)NC1CC1 [Example 325, N-cyclopropyl-4-{6-(3-fluorophenoxy)-8-[(3-hydroxy-3-methylbutyl)amino]imidazo[1,2-b]pyridazin-3-yl}-2-methyl-benzamide]"
3,1 nM,"Cc1cc(-c2cnc3c(NCC(C)(C)O)cc(SC4CCCC4)nn23)ccc1C(=O)NC1CC1 [Example 336, 4-{6-(cyclopentylsulfanyl)-8-[(2-hydroxy-2-methylpropyl)amino]imidazo[1,2-b]pyridazin-3-yl}-N-cyclopropyl-2-methyl-benzamide]"
4,3.5 nM,"Cc1cccc(-c2cc(NCC(C)C)c3ncc(-c4ccc(C(=O)NC5CC5)cc4)n3n2)c1 [Example 105, N-cyclopropyl-4-{6-(3-methylphenyl)-8-[(2-methylpropyl)amino]imidazo[1,2-b]pyridazin-3-yl}benzamide]"
5,2.4 nM,"Cc1cc(-c2cnc3c(NC[C@@H]4CCCO4)cc(-c4ccnn4C)nn23)ccc1C(=O)NC1CC1 [Example 34, N-cyclopropyl-2-methyl-4-[6-(1-methyl-1H-pyrazol-5-yl)-8-{[(2S)-tetrahydrofuran-2-ylmethyl]amino}imidazo[1,2-b]pyridazin-3-yl]benzamide]"
6,0.2 nM,"Cc1cc(-c2cnc3c(NCCC(F)(F)F)cc(Nc4cccc(Cl)c4)nn23)ccc1C(=O)NC1CC1 [Example 379, 4-{6-[(3-chlorophenyl)amino]-8-[(3,3,3-trifluoropropyl)amino]imidazo[1,2-b]pyridazin-3-yl}-N-cyclopropyl-2-methylbenzamide]"
7,33.2 nM,"C/C=C(\C)c1cc(NCCC(F)(F)F)c2ncc(-c3ccc(-c4cnc(C5CC5)[nH]4)cc3)n2n1 [Example 27, 6-[(2E)-But-2-en-2-yl]-3-[4-(2-cyclopropyl-1H-imidazol-5-yl)phenyl]-N-(3,3,3-trifluoropropyl)imidazo[1,2-b]pyridazin-8-amine]"
8,0.2 nM,"Cc1cc(-c2cnc3c(NCCCN4CCCCC4)cc(Oc4cccc(F)c4)nn23)ccc1C(=O)NC1CC1 [Example 505, N-cyclopropyl-4-[6-(3-fluoro-phenoxy)-8-{[3-(piperidin-1-yl)propyl]amino}imidazo[1,2-b]pyridazin-3-yl]-2-methyl-benzamide]"
9,0.6 nM,"CCNC(=O)c1ccc(-c2cnc3c(NCCC(F)(F)F)cc(Oc4ccc(O)cc4F)nn23)cc1C [Example 561, N-ethyl-4-{6-(2-fluoro-4-hydroxyphenoxy)-8-[(3,3,3-trifluoropropyl)amino]imidazo[1,2-b]pyridazin-3-yl}-2-methylbenzamide]"
10,0.2 nM,"Cc1cc(F)cc(Nc2cc(NCC(C)(C)O)c3ncc(-c4ccc(C(=O)NC5CC5)c(C)c4)n3n2)c1 [Example 394, N-cyclopropyl-4-{6-[(3-fluoro-5-methylphenyl)amino]-8-[(2-hydroxy-2-methylpropyl)amino]imidazo[1,2-b]pyridazin-3-yl}-2-methylbenzamide]"
11,29.5 nM,"Cc1cc(-c2cnc3c(NCC(C)C)cc(Cl)nn23)ccc1C(=O)NC1CC1 [Example 99, 4-{6-Chloro-8-[(2-methylpropyl)amino]imidazo[1,2-b]pyridazin-3-yl}-N-cyclopropyl-2-methylbenzamide]"
12,0.2 nM,"Cc1cc(F)cc(Oc2cc(NCC(C)(C)O)c3ncc(-c4ccc(C(=O)NC5CC5)c(C)c4)n3n2)c1 [Example 87, N-cyclopropyl-4-{6-(3-fluoro-5-methylphenoxy)-8-[(2-hydroxy-2-methylpropyl)amino]imidazo[1,2-b]pyridazin-3-yl}-2-methylbenzamide]"
13,1 nM,"Cc1cccc(Nc2cc(NCC(C)(C)O)c3ncc(-c4ccc(C(=O)NC5CC5)c(C)c4)n3n2)c1 [Example 308, N-cyclopropyl-4-{8-[(2-hydroxy-2-methylpropyl)amino]-6-[(3-methylphenyl)amino]imidazo[1,2-b]pyridazin-3-yl}-2-methylbenzamide]"
14,0.2 nM,"Cc1cc(-c2cnc3c(NCCC(F)(F)F)cc(Nc4ccc(F)c(F)c4)nn23)ccc1C(=O)NC1CC1 [Example 373, N-cyclopropyl-4-{6-[(3,4-difluorophenyl)amino]-8-[(3,3,3-trifluoropropyl)amino]imidazo[1,2-b]pyridazin-3-yl}-2-methylbenzamide]"
15,1.1 nM,"Cc1cc(-c2cnc3c(NCCCC(F)(F)F)cc(Nc4ccc(F)c(F)c4)nn23)ccc1C(=O)NC1CC1 [Example 447, N-cyclopropyl-4-{6-[(3,4-difluorophenyl)amino]-8-[(4,4,4-trifluorobutyl)amino]imidazo[1,2-b]pyridazin-3-yl}-2-methylbenzamide]"
16,< 0.7 nM,"Cc1cc(-c2cnc3c(NCC(C)(C)O)cc(Sc4ccccc4O)nn23)ccc1C(=O)NC1CC1 [Example 73A, N-cyclopropyl-4-{8-[(2-hydroxy-2-methylpropyl)amino]-6-[(2-hydroxyphenyl)sulfanyl]imidazo[1,2-b]pyridazin-3-yl}-2-methylbenzamide]"
17,0.1 nM,"Cc1cc(-c2cnc3c(NCCC(F)(F)F)cc(Nc4cccc(O)c4C)nn23)ccc1C(=O)NC1CC1 [Example 454, N-cyclopropyl-4-{6-[(3-hydroxy-2-methylphenyl)amino]-8-[(3,3,3-trifluoropropyl)amino]imidazo[1,2-b]pyridazin-3-yl}-2-methylbenzamide]"
18,2.3 nM,"CC(C)CNc1cc(-c2ccc3ncccc3c2)nn2c(-c3ccc(C(=O)NC4CC4)cc3)cnc12 [Example 144, N-cyclopropyl-4-{8-[(2-methylpropyl)amino]-6-(quinolin-6-yl)imidazo [1,2-b]pyridazin-3-yl} benzamide]"
19,121 nM,"Cc1cc(-c2cnc3c(NCC(C)(C)O)cc(Oc4ccnn4C)nn23)ccc1C(=O)NC1CC1 [Example 319, N-cyclopropyl-4-{8-[(2-hydroxy-2-methylpropyl)amino]-6-[(1-methyl-1H-pyrazol-5-yl)oxy]imidazo[1,2-b]pyridazin-3-yl}-2-methylbenzamide]"
20,0.4 nM,"Cc1cc(-c2cnc3c(NCC4CCSCC4)cc(Sc4ccccc4)nn23)ccc1C(=O)NC1CC1 [Example 284, N-cyclopropyl-2-methyl-4-{6-(phenylsulfanyl)-8-[(tetrahydro-2H-thiopyran-4-ylmethyl)amino]imidazo[1,2-b]pyridazin-3-yl}benzamide]"
21,0.1 nM,"Cc1cc(-c2cnc3c(NCCC(F)(F)F)cc(Oc4ccc(F)nc4)nn23)ccc1C(=O)NC1CC1 [Example 436, N-cyclopropyl-4-{6-[(6-fluoropyridin-3-yl)oxy]-8-[(3,3,3-trifluoropropyl)amino]imidazo[1,2-b]pyridazin-3-yl}-2-methylbenzamide]"
22,0.1 nM,"Cc1ccc(F)cc1Nc1cc(NCCC(F)(F)F)c2ncc(-c3ccc(C(=O)NC4CC4)c(C)c3)n2n1 [Example 375, N-cyclopropyl-4-{6-[(5-fluoro-2-methylphenyl)amino]-8-[(3,3,3-trifluoropropyl)amino]imidazo[1,2-b]pyridazin-3-yl}-2-methylbenzamide]"
23,64.9 nM,"Cc1cc(-c2cnc3c(NCC(C)(C)O)cc(-c4cn[nH]c4)nn23)ccc1C(=O)NC1CC1 [Example 162, N-cyclopropyl-4-{8-[(2-hydroxy-2-methylpropyl)amino]-6-(1H-pyrazol-4-yl)imidazo[1,2-b]pyridazin-3-yl}-2-methylbenzamide]"
24,< 0.1 nM,"Cc1cc(-c2cnc3c(NC[C@H]4CC[S@@+]([O-])CC4)cc(Sc4cccc(F)c4)nn23)ccc1C(=O)NC1CC1 [Example 304A, N-cyclopropyl-4-(6-[(3-fluorophenyl)sulfanyl]-8-({[(cis)-1-oxidotetrahydro-2H-thiopyran-4-yl]methyl}amino)imidazo[1,2-b]pyridazin-3-yl)-2-methylbenzamide]"
25,0.2 nM,"Cc1cc(-c2cnc3c(NCc4cc[nH]n4)cc(Oc4cccc(F)c4)nn23)ccc1C(=O)NC1CC1 [Example 489, N-cyclopropyl-4-{6-(3-fluoro-phenoxy)-8-[(1H-pyrazol-3-ylmethyl)amino]imidazo [1,2-b]pyridazin-3-yl}-2-methylbenzamide]"
26,0.9 nM,"CC(C)(O)CNc1cc(Oc2ccccc2)nn2c(-c3ccc(C(=S)NC4CC4)cc3)cnc12 [Example 243, N-cyclopropyl-4-{8-[(2-hydroxy-2-methylpropyl)amino]-6-phenoxyimidazo[1,2-b]pyridazin-3-yl}benzenecarbothioamide]"
